One assay deals with KHT tumor model. The following applies: 200 mg/kg, 0.5 or 1 hour prior to X-irradiation; FIG. 6.
The test system of assay [1] is Chinese hamster ovary (CHO) cells. Description: Toxicity in hypoxic and aerated CHO cells (plating efficiency/survival). The class given is cell-based. The following applies: for approximate order of hypoxic toxicity of platinum complexes: hypoxia. On the procedure: The toxicity of the invention compounds with respect to Chinese hamster ovary (CHO) cells was compared in air and in nitrogen induced hypoxia as described by Moore, B. A., et al, Radiation Research (1976) 67:459-478. The radiosensitizing ligands, or cis or transdichlorodiamine platinum II (DDP) or the . bisubstituted platinum complexes, PtCl2 (L)2, were used as controls.
The cells were carried in MEM a medium with 10% fetal calf serum, and plating efficiencies were determined on the seventh day after plating.
In similar experiments at 100 mM/dm^3, MISO and trans-[PtCl2 (miso)2 ] show no toxicity. Survival rates for trans-DDP and monoammine were 0.2 and 0.1 respectively.
Using 100 mM levels, mono-6NQ caused plating efficiency to drop to 0 after an hour, while 6NQ had no effect after 3 hours.

Assay [2] has as its system L1210 cells, cDDP sensitive line. Description: Toxicity in cisDDP-sensitive L1210 cells. The settings on record: read-out: ID50 (the source's name). The class given is cell-based. The source says:
(§1) Patients become resistant to cisplatin (cisDDP) and to many related drugs.

Assay [3] relates to L1210 cells, cDDP resistant line. In words: Toxicity in cisDDP-resistant L1210 cells (cross-resistance). The class given is cell-based. The settings on record: for IC50: L1210, cDDP resistant line, read-out: ID50 (the source's name).
Text: as §1

The next assay concerns DNA of CHO cells. Description: Platinum bound to DNA extracted from whole CHO cells, atomic absorption. The settings on record: 1-2 hr exposure. The assay is classed as cell-based, Chinese hamster. On the set-up: dose or concentration left out as unconfirmed. The source says:
Though the results of this assay were erratic they establish that the Pt complexes cross cell membranes and bind to DNA in mammalian cells.

The next assay relates to CHO cells. Description: Radiosensitization of CHO cells (enhancement ratio). The class given is cell-based, Chinese hamster. The following applies: Table 1; 10 mmol/dm^3. As for the experimental part:
Radiosensitization of CHO cells was determined as described by Moore, B. A., et al, sucra, at 4° C., except that the cells were incubated with complex for 1 hr at 37° C. to allow binding to DNA prior to radiation. A Picker X-ray source (250 kVp, 1.7 mm Cu) was used. As with the toxicity studies, cells were carried, irradiated, and plated in MEM a medium with 10% fetal calf serum, and plating efficiencies were determined on the seventh day after plating. Enhancement ratios (ER) were calculated from the doses required to reduce survival to 1%.

For another assay, the system named is cancer. The following applies: cited from earlier work.
The subject of the next assay is plasmid pSV2-gpt DNA. In words: Binding to DNA by inhibition of restriction enzyme (BamHI) cleavage of plasmid DNA. The class given is biochemical. Further details: inhibition of BamHI cleavage / inhibition of cleavage with BamHI: unit of the concentration uncertain. As for the experimental part:
The ability of the invention compounds to bind DNA was tested using an assay which is based on inhibition of the ability of restriction enzymes to cleave the complexed DNA. The substrate in the assay was the plasmid pSV2-gpt (Mulligan, R., et al Science (1980) 209:1422-1427). After growth in E. coli. this 5.2 kb plasmid was extracted and linearized using PvuII. Cleavage of the extracted linearized segment by BamHI or EcoRI results in two fragments per enzyme. Inhibition of this cleavage by test compounds provides an assay method for binding of the test compounds.
In the assay, DNA (20 mg/ml) in 100 mM Tris-HCl, 1 mM EDTA, pH 8, was treated with the test compounds at approximately 100 mM for 1 hr at 37° C. Unbound drug was then removed using a G-50 Sephadex spin column (Pharmacia).
To 30 mM of the treated DNA, 23.5 ml of a buffer solution containing 0.33 M Tris-acetate, pH 7.9, 0.66 M potassium acetate, 0.10 M dithiothreitol, and 1 mg/ml BSA, along with 10 units of enzyme, were added. Enzyme activity was stopped using 1 ml 0.5 M EDTA after 30 min at 37° C. Tracking 0.25% bromophenol blue, 0.25% xylene cyanol in 30% glycerol water) was added, and 10 ml of the resulting solution loaded onto a 1% agarose gel made with E buffer (0.04 M Tris, 5 mM sodium acetate; 1 mM EDTA, pH 7.8) and subjected to horizontal electrophoresis. The slab gel was stained with aqueous ethidium bromide solution (1 ng/ml) and photographed under UV light.
Inhibition of the restriction enzyme cleavage was assessed qualitatively by noting the relative proportion of bands, or quantitatively by analyzing densitometric scans of the negatives of the recorded pictures.

In the next assay the test system is hypoxic cells. The settings on record: Teicher et al; cited from earlier work.

Where two headings read alike, the source gives them in different places.

The values that follow come from US5026694A, “Platinum complexes with one radiosensitizing ligand” (priority 1989, dated 1991).

Turning to `COCC(O)Cn1cc[n+]([Pt-2]([NH3+])([Cl])[Cl])c1[N+](=O)[O-]` (stereo not drawn) [trans-mono-MISO, PtCl2 (NH3) (misonidazole)], the radiosensitization in vivo entry in the assay on KHT tumor model is given as “enhance the effect of the X-rays”. Moreover, the “toxicity compared with other isomer” value in [1] (100 mM/dm^3, FIG. 1) is recorded as “trans isomer is more toxic than cis”. Further, the “approximate order of hypoxic toxicity of platinum complexes” value in assay [1] is reported as “cis-DDP ff trans-mono-MISO f monoammine Z cis-mono-MISO f trans-DDP f mono-METRO Z mono-NI f mono-ANT”. The results for the IC50 in [2] (listed as trans mono MISO) and in assay [3] were 6.5 mM and 18.6 mM, respectively.
Consider `N.N.[Cl][Pt][Cl]` [cis-DDP, cis[PtCl2 (NH3)2]], for which the “platinum bound to the extracted DNA” value in the assay with DNA of CHO cells was determined as 6 ng Pt/10^6 cells. Besides, in the assay on CHO cells, the ER was 1.3. In addition, the “toxicity compared with the compounds of the invention” value in [1] (100 mM/dm^3 experiments) is “somewhat more toxic than the compounds of the invention”. For the same molecule, in assay [1], the “approximate order of hypoxic toxicity of platinum complexes” value was “cis-DDP ff trans-mono-MISO f monoammine Z cis-mono-MISO f trans-DDP f mono-METRO Z mono-NI f mono-ANT”. Further, the IC50 came to 0.1 mM in assay [2] and 5 mM in assay [3]. In [3] (L1210 cells), the “Ratio (ID50 cDDP resistant/cDDP sensitive)” value was 50. The “effectiveness in sensitive versus resistant cells” value in assay [3] (more effective in "sensitive" cells) is given as 50 ×. Also, in the assay on cancer (literature, 1969), the antineoplastic activity entry is recorded as “shown to have antineoplastic activity”. In addition, the “usefulness in treatment of cancer” value with cancer (testicular cancer versus other sites) is recorded as “useful in the treatment of testicular cancer, but less so in treatment of cancers at other sites”. The “inhibition of BamHI cleavage” value in the assay with plasmid pSV2-gpt DNA (40 (unit uncertain)) came out at 30%. Besides, the “binding to DNA as indicated by enzyme inhibition” value in the assay with plasmid pSV2-gpt DNA (1 hr at 37° C.) is reported as “binds much more strongly than the monoammine”.
Regarding “mono-substituted platinum complex of 1,2-diamino-4-nitrobenzene [Plato]”, in the assay on hypoxic cells, the “killing of hypoxic cells / toxicity toward oxygenated cells” value was “high capacity for killing of hypoxic cells and less toxicity toward oxygenated cells”.
